Publication doi:10.1101/2024.08.06.606911v7 (biorxiv, 2025)

Molecular target: PTEN (GST-PTEN; Myc-PTEN) (Homo sapiens, UniProt P60484)
Assay: SPR, BIACORE […], PTEN immobilised on CM5 chip
Type: binding

Chain of PTEN (GST-PTEN; Myc-PTEN) (P60484 whole entry): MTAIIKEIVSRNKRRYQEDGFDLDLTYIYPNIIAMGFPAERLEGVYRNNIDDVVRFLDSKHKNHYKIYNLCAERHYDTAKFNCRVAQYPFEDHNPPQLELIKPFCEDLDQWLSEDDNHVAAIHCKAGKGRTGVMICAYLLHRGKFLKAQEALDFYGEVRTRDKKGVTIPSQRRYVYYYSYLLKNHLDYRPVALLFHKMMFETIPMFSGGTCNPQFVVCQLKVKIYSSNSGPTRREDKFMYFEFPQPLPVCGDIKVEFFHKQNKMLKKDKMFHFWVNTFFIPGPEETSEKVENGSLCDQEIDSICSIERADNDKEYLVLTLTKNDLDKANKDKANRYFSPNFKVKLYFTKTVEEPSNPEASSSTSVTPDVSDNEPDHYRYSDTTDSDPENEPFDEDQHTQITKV

- Kd: 230 µM
SMILES: C[C@@H]1O[C@@H](O[C@@H]2[C@@H](O)[C@H](OCCc3ccc(O)c(O)c3)O[C@H](CO[C@@H]3O[C@H](CO)[C@@H](O)[C@H](O)[C@H]3O)[C@H]2OC(=O)/C=C/c2ccc(O)c(O)c2)[C@H](O)[C@H](O)[C@H]1O [Echinacoside]
